Measurements taken from patent US20230061736A1, “GPR119 AGONISTS” (Kallyope, Inc., priority 2019, published 2023).
Where two headings read alike, the source gives them in different places.

How the values were obtained:
[1] = Oral bioavailability in mice; conditions: mouse, in vivo; C57BL/6 mice; IV 1 mg/kg, PO 30 mg/kg
Procedure: Compounds were dosed IV at 1 mg/kg as a formulation of 0.5 mg/mL in 5% DMSO+30% PEG400+65% water and PO at 30 mg/kg as a formulation of 6 mg/mL in 0.25% methylcellulose+5% Tween 80+0.02% SDS in water (Compound 42) or 0.5% methylcellulose+0.5% Tween 80 in water (Compound 83).

human GPR119 (hGPR119) = molecular target: T1, human GPR119 (hGPR119) (Homo sapiens, UniProt Q8TDV5); test: cAMP accumulation assay (cAMP Gs dynamic HTRF kit); assay type: cell-based; conditions: CHO-K1 cells stably expressing hGPR119, 4-parameter fit; for Emax: 1 h, % activity normalized to Max/Min controls; for EC50: cAMP accumulation
T1 construct: expressed in transfected cells
T1 sequence (Q8TDV5 1-335): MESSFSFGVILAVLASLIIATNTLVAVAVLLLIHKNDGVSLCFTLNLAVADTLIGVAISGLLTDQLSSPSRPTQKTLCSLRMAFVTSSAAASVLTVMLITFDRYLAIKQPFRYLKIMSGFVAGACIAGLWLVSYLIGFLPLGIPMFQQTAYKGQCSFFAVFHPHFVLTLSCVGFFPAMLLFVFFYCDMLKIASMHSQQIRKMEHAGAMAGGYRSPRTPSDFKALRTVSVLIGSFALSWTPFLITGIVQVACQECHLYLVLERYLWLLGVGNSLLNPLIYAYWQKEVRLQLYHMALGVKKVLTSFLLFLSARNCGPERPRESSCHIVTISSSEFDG
How it was run: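 CHO-K1 cells stably expressing hGPR119, used as assay-ready frozen stocks at ~10,000 cells/well, exposed to compound dose-response in stimulation buffer with Tween 80 for 60 min at 37° C. cAMP read by HTRF (665/620 nm ratio), normalised to Max/Min controls; EC50 and Max activity from 4-parameter fit.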

[2] = In vivo plasma levels in mice after oral gavage; set-up: species or system C57BL/6J mice; conditions: mouse, 30 mpk oral gavage, 2 h post-dose; for concentration at 2 h: male, C57BL/6J, plasma, 30 mg/kg, read-out: Exposure Total (plasma)
[3] = In vivo plasma levels in mice after oral gavage; set-up: species or system C57BL/6J mice; conditions: mouse, 30 mpk oral gavage; for Exposure unbound (plasma): total exposure x free fraction from plasma protein binding
Procedure: Male C57BL/6J mice 10-12 weeks old were dosed with test article or vehicle [0.25% (w/v) methylcellulose, 5% (v/v) Polysorbate 80, and 0.02% (w/v) sodium lauryl sulfate in Hanks' Balanced Salt solution (all final concentrations)] by oral gavage at a volume of 10 mL/kg. Animals were euthanized with carbon dioxide 7-8 h post dose. Blood was collected for measurement of plasma concentrations of test article. Unbound exposure was calculated by multiplying the measured total exposure by the free fraction as assessed from plasma protein binding.
Plasma protein binding to isotonic phosphate buffer (PBS) containing 10% C57 BL/6 mouse plasma was determined using equilibrium dialysis of plasma spiked with test article (2 μM) against a dialysis buffer (100 mM sodium phosphate and 150 mM NaCl). At the end of the dialysis (4 hr), aliquots of the plasma and buffer were processed by protein precipitation for LC-MS/MS analysis to quantitate the test article.

[4] = in rats; Bioorganic & Medicinal Chemistry Letters 27(5), 2017, 1124-1128 (Compound 17 in the reference); cited from earlier work
[5] = male, C57BL/6J, plasma, 30 mg/kg, 7 h post-dose, read-out: Exposure Total (plasma)

Row | Structure (SMILES) | Emax (human GPR119 (hGPR119)) [%] | EC50 (human GPR119 (hGPR119)) [nM] | concentration at 2 h [2] [nM] | concentration at 7 h [3, 5] [nM] | Exposure unbound (plasma) ([3]; 7 h post-dose) [nM] | further results
1 | COCc1cnc(N2CCC(CCCOc3ccc(CC(=O)N4CC(CNC[C@H](O)[C@@H](O)[C@H](O)[C@H](O)CO)C4)c(F)c3)CC2)nc1 [Example 83, 2-[2-fluoro-4-[3-[1-[5-(methoxymethyl)pyrimidin-2-yl]-4-piperidyl]propoxy]phenyl]-1-[3-[[[(2S,3R,4R,5R)-2,3,4,5,6-pentahydroxyhexyl]amino]methyl]azetidin-1-yl]ethanone] | 100 to 130 | 100 to 1000 |  |  |  | bioavailability [1]: 1.4%
2 | O=C(Cc1ccc(OCCCC2CCN(c3ncc(Cl)cn3)CC2)cc1F)N1CC(CNC[C@H](O)[C@@H](O)[C@H](O)[C@H](O)CO)C1 [Example 42, 2-[4-[3-[1-(5-chloropyrimidin-2-yl)-4-piperidyl]propoxy]-2-fluoro-phenyl]-1-[3-[[[(2S,3R,4R,5R)-2,3,4,5,6-pentahydroxyhexyl]amino]methyl]azetidin-1-yl]ethanone] | 100 to 130 | 100 to 1000 | 806 |  |  | bioavailability [1]: 2.4%; Exposure unbound (plasma) ([2]; total exposure x free fraction from plasma protein binding): 2.4 nM; concentration at 8 h ([3]; male, C57BL/6J, plasma, 30 mg/kg, 8 h post-dose, read-out: Exposure Total (plasma)): 369 nM; Exposure unbound (plasma) ([3]; 8 h post-dose): 1.1 nM
3 | COCc1cnc(N2CCC([C@H]3C[C@H]3CCOc3cc(F)c(CC(=O)N4CCC4)c(F)c3)CC2)nc1 [1-(azetidin-1-yl)-2-(2,6-difluoro-4-(2-((1S,2R)-2-(1-(5-(methoxymethyl)pyrimidin-2-yl)piperidin-4-yl)cyclopropyl)ethoxy)phenyl)ethan-1-one] |  |  |  |  |  | bioavailability [4]: 80%
4 | COc1c(Nc2ccc(S(C)(=O)=O)nc2C)ncnc1OC1CCN(C(=O)OC(C)C)CC1 [APD597, isopropyl 4-((5-methoxy-6-((2-methyl-6-(methylsulfonyl)pyridin-3-yl)amino)pyrimidin-4-yl)oxy)piperidine-1-carboxylate, reference compound] |  |  | 16200 |  |  | 
5 | O=C(CC1CN(C(=O)Cc2ccc(OCCCC3CCN(c4ncc(Cl)cn4)CC3)cc2F)C1)NC[C@H](O)[C@@H](O)[C@H](O)[C@H](O)CO (racemic) [Example 38, 2-[1-[2-[4-[3-[1-(5-chloropyrimidin-2-yl)-4-piperidyl]propoxy]-2-fluoro-phenyl]acetyl]azetidin-3-yl]-N-[rac-(2S,3R,4R,5R)-2,3,4,5,6-pentahydroxyhexyl]acetamide] | ≥ 130 | 100 to 1000 |  | 76 | 0.2 | 

More lines, main results first:

Row | Emax (human GPR119 (hGPR119)) [%] | EC50 (human GPR119 (hGPR119)) [nM] | concentration at 2 h [2] [nM] | concentration at 7 h [3, 5] [nM] | Exposure unbound (plasma) ([3]; 7 h post-dose) [nM] | Structure (SMILES) | further results
6 | 100 to 130 | 100 to 1000 |  | 67 | 0.1 | O=C(Cc1ccc(OCC[C@@H]2C[C@@H]2C2CCN(c3ncc(Cl)cn3)CC2)cc1F)N1CC(CNC[C@H](O)[C@@H](O)[C@H](O)[C@H](O)CO)C1 [Example 86, 2-[4-[2-[(1S,2R)-2-[1-(5-chloropyrimidin-2-yl)-4-piperidyl]cyclopropyl]ethoxy]-2-fluoro-phenyl]-1-[3-[[[(2S,3R,4R,5R)-2,3,4,5,6-pentahydroxyhexyl]amino]methyl]azetidin-1-yl]ethanone] | 
7 |  |  | 7840 |  |  | CC(C)c1noc(N2CCC(COc3ccc(-c4ccc(S(C)(=O)=O)cc4)nc3)CC2)n1 [GSK1292263, 3-isopropyl-5-(4-(((6-(4-(methylsulfonyl)phenyl)pyridin-3-yl)oxy)methyl)piperidin-1-yl)-l,2,4-oxadiazole, reference compound] | 
8 | ≥ 130 | ≤ 100 |  | 354 | 0.7 | O=C(NC(CO)(CO)CO)C1CN(C(=O)Cc2ccc(OCCCC3CCN(c4ncc(Cl)cn4)CC3)cc2F)C1 [Example 29, 1-[2-[4-[3-[1-(5-chloropyrimidin-2-yl)-4-piperidyl]propoxy]-2-fluoro-phenyl]acetyl]-N-[2-hydroxy-1,1-bis(hydroxymethyl)ethyl]azetidine-3-carboxamide] | 
